Assays:
rat [1] = settings: Prenatal developmental toxicity study, sprague dawley, Oral, Gavage/Intubation, dose end: 19 GD
dog [2] = settings: Chronic toxicity; beagle; Oral; Capsule; dose end: 26 week; group: systemic; systemic / in life observation / body weight / body weight gain + systemic / in life observation / clinical signs / [other] + systemic / in …
rat [3] = settings: Prenatal developmental toxicity study, sprague dawley, Oral, Gavage/Intubation, dose end: 17 GD
rabbit [4] = settings: Prenatal developmental toxicity study, new zealand white, Oral, Gavage/Intubation, dose end: 19 GD, group: maternal
rat [5] = settings: Sub-acute repeat dose toxicity, sprague dawley, Oral, Gavage/Intubation, dose end: 28 day, group: systemic
rabbit [6] = settings: Prenatal developmental toxicity study, new zealand white, Oral, Gavage/Intubation, dose end: 19 GD, group: maternal; remark: listed apart in the source
rat [7] = settings: Prenatal developmental toxicity study, sprague dawley, Oral, Gavage/Intubation, dose end: 17 GD; remark: listed apart in the source
dog [8] = settings: Sub-acute repeat dose toxicity, beagle, Oral, Capsule, dose end: 4 week, group: systemic
rat [9] = settings: Fertility (Segment I); sprague dawley; Oral; Gavage/Intubation; dose end: 7 GD; group: parental; systemic / in life observation / body weight / body weight + systemic / in life observation / clinical signs / abnormal gait + systemic / in…
rat [10] = settings: Multigenerational reproductive toxicity study, sprague dawley, Oral, Water, dose end: 3 generation, systemic / pathology microscopic / liver / apoptosis + systemic / pathology microscopic / liver / glycogen deposition
rat [11] = settings: Peri- and post-natal toxicity study (Segment III), sprague dawley, Oral, Gavage/Intubation, dose end: 5 PND
rat [12] = settings: Prenatal developmental toxicity study, sprague dawley, Oral, Gavage/Intubation, dose end: 19 GD; remark: listed apart in the source
mouse [13] = settings: Prenatal developmental toxicity study, other, Oral, Water, dose end: 19 GD
mouse [14] = settings: Prenatal developmental toxicity study, swiss albino, Oral, Gavage/Intubation, dose end: 16 GD
rat [15] = settings: Prenatal developmental toxicity study, wistar, Injection, Intramuscular, dose end: 15 GD
rat [16] = settings: Prenatal developmental toxicity study, sprague dawley, Injection, Intramuscular, dose end: 15 GD
rat [17] = settings: Prenatal developmental toxicity study, sprague dawley, Oral, [Not Specified], dose end: 15 GD
rat [18] = settings: Prenatal developmental toxicity study, sprague dawley, Injection, Subcutaneous, dose end: 15 GD
[19] = group: developmental, developmental / developmental malformation / bone / unossified + systemic / in life observation / body weight / fetal weight
[20] = group: maternal, reproductive / reproductive performance / postimplantation loss / postimplantation loss + reproductive / reproductive performance / …
[21] = group: developmental, developmental / developmental malformation / mouth / jaw / cleft palate
[22] = group: maternal, systemic / in life observation / body weight / body weight gain + systemic / in life observation / clinical signs / abnormal gait + systemic…
[23] = systemic / in life observation / body weight / body weight gain + systemic / in life observation / food consumption / food consumption
[24] = systemic / in life observation / body weight / body weight gain + systemic / in life observation / food consumption / food consumption + …
[25] = systemic / in life observation / clinical signs / unsteady gait + systemic / in life observation / body weight / body weight gain
[26] = systemic / in life observation / clinical signs / unsteady gait + systemic / in life observation / body weight / body weight gain + systemic…
[27] = systemic / in life observation / body weight / body weight gain + systemic / in life observation / clinical signs / defecation + systemic / …
[28] = systemic / in life observation / clinical signs / abnormal feces + systemic / in life observation / clinical signs / body cold to touch + …
[29] = group: developmental, developmental / developmental malformation / mouth / jaw / cleft palate + systemic / in life observation / body weight / fetal weight
[30] = group: maternal, systemic / in life observation / clinical signs / impaired righting reflex + systemic / in life observation / clinical signs / piloerection
[31] = systemic / clinical chemistry / albumin / albumin + systemic / clinical chemistry / cholesterol / cholesterol + systemic / clinical …
[32] = systemic / clinical chemistry / cholesterol / cholesterol + systemic / clinical chemistry / lipids / phospholipids
[33] = group: developmental, developmental / offspring survival late / viability index / viability index + developmental / developmental landmark / vaginal opening / …
[34] = group: maternal, reproductive / offspring survival early / dead fetuses / dead fetuses
[35] = group: offspring, systemic / in life observation / body weight / offspring (pup) weight
[36] = group: offspring, systemic / in life observation / body weight / offspring (pup) weight + systemic / organ weight / prostate / absolute + systemic / organ …
[37] = group: maternal, systemic / in life observation / body weight / body weight gain + systemic / in life observation / clinical signs / salivation
[38] = group: maternal, systemic / in life observation / body weight / body weight gain + systemic / in life observation / clinical signs / salivation + systemic / …
[39] = group: developmental, developmental / developmental malformation / bone / delayed ossification + developmental / developmental malformation / bone / exencephaly…
[40] = group: maternal, reproductive / reproductive performance / resorptions / resorptions + systemic / in life observation / body weight / body weight + systemic…
[41] = group: developmental, developmental / developmental malformation / general / hemorrhage + developmental / developmental malformation / kidney / dilated renal …
[42] = group: maternal, reproductive / reproductive performance / implantations / implantations + reproductive / reproductive performance / postimplantation loss / …
[43] = group: developmental, developmental / developmental malformation / bone / wavy + developmental / developmental malformation / heart / membranous ventricular …
[44] = group: maternal, reproductive / reproductive performance / postimplantation loss / postimplantation loss
[45] = group: developmental, developmental / developmental malformation / bone / wavy + systemic / in life observation / body weight / fetal weight

SMILES: CCC#N [Propionitrile]
- LEL (rat [1]; group: developmental, developmental / developmental malformation / bone / unossified): 40 mg/kg/day
- LOAEL (rat [1]; [19]): > 80 mg/kg/day
- NEL (rat [1]; [19]): 20 mg/kg/day
- NOAEL (rat [1]; [19]): ≥ 80 mg/kg/day
- LEL (rat [1]; [20]): 80 mg/kg/day
- LOAEL (rat [1]; [20]): > 80 mg/kg/day
- NEL (rat [1]; [20]): 40 mg/kg/day
- NOAEL (rat [1]; [20]): ≥ 80 mg/kg/day

SMILES: COc1cccc(-c2ccc(/C=C\CN3CCCCCC3)cc2Cl)c1.Cl
- LEL (dog [2]): 15 mg/kg/day
- LOAEL (dog [2]): 15 mg/kg/day
- NEL (dog [2]): 7.5 mg/kg/day
- NOAEL (dog [2]): 7.5 mg/kg/day
- LEL (rat [3]; [21]): 75 mg/kg/day
- LOAEL (rat [3]; [21]): 75 mg/kg/day
- NEL (rat [3]; [21]): 35 mg/kg/day
- NOAEL (rat [3]; [21]): 35 mg/kg/day
- LEL (rat [3]; [22]): 35 mg/kg/day
- LOAEL (rat [3]; [22]): 35 mg/kg/day
- NEL (rat [3]; [22]): 15 mg/kg/day
- NOAEL (rat [3]; [22]): 15 mg/kg/day
- LEL (rabbit [4]; [23]): 35 mg/kg/day
- LOAEL (rabbit [4]; [23]): 35 mg/kg/day
- NEL (rabbit [4]; [24]): 15 mg/kg/day
- NOAEL (rabbit [4]; [24]): 15 mg/kg/day
- LOAEL (rat [5]; [25]): 30 mg/kg/day
- NOAEL (rat [5]; [25]): < 30 mg/kg/day
- LEL (rat [5]; [26]): 30 mg/kg/day
- NEL (rat [5]; [26]): < 30 mg/kg/day
- LEL (rabbit [6]; [27]): 25 mg/kg/day
- NEL (rabbit [6]; [27]): < 25 mg/kg/day
- LOAEL (rabbit [6]; [28]): > 150 mg/kg/day
- NOAEL (rabbit [6]; [28]): ≥ 150 mg/kg/day
- LEL (rat [7]; [21]): 60 mg/kg/day
- LOAEL (rat [7]; [21]): 60 mg/kg/day
- NEL (rat [7]; [29]): 30 mg/kg/day
- NOAEL (rat [7]; [29]): 30 mg/kg/day
- LEL (rat [7]; [30]): 30 mg/kg/day
- LOAEL (rat [7]; [30]): 30 mg/kg/day
- NEL (rat [7]; [30]): < 30 mg/kg/day
- NOAEL (rat [7]; [30]): < 30 mg/kg/day
- LOAEL (dog [8]; [31]): 10 mg/kg/day
- NOAEL (dog [8]; [31]): 5 mg/kg/day
- LEL (dog [8]; [32]): 5 mg/kg/day
- NEL (dog [8]; [32]): < 5 mg/kg/day
- LEL (rat [9]): 90 mg/kg/day
- LOAEL (rat [9]): 90 mg/kg/day
- NEL (rat [9]): 30 mg/kg/day
- NOAEL (rat [9]): 30 mg/kg/day

SMILES: CCCCCCCCc1ccc(O)cc1 [4-Octylphenol]
- LEL (rat [10]; group: offspring): 1.25 mg/kg/day
- LOAEL (rat [10]; group: offspring): > 1.25 mg/kg/day
- NEL (rat [10]; group: offspring): < 1.25 mg/kg/day
- NOAEL (rat [10]; group: offspring): ≥ 1.25 mg/kg/day
- LEL (rat [10]; group: parental): 1.25 mg/kg/day
- LOAEL (rat [10]; group: parental): > 1.25 mg/kg/day
- NEL (rat [10]; group: parental): < 1.25 mg/kg/day
- NOAEL (rat [10]; group: parental): ≥ 1.25 mg/kg/day
- LEL (rat [11]; group: developmental, developmental / developmental landmark / vaginal opening / vaginal opening + developmental / developmental landmark / preputial separation…): 50 mg/kg/day
- LOAEL (rat [11]; [33]): > 100 mg/kg/day
- NEL (rat [11]; [33]): 25 mg/kg/day
- NOAEL (rat [11]; [33]): ≥ 100 mg/kg/day
- LEL (rat [11]; [34]): 50 mg/kg/day
- LOAEL (rat [11]; [34]): > 100 mg/kg/day
- NEL (rat [11]; [34]): 25 mg/kg/day
- NOAEL (rat [11]; [34]): ≥ 100 mg/kg/day
- LOAEL (rat [11]; [35]): 25 mg/kg/day
- NOAEL (rat [11]; [35]): 12.5 mg/kg/day
- LEL (rat [11]; [36]): 12.5 mg/kg/day
- NEL (rat [11]; [36]): < 12.5 mg/kg/day

SMILES: CN=C=S [Methyl isothiocyanate]
- LEL (rat [12]; [19]): 30 mg/kg/day
- LOAEL (rat [12]; [19]): 30 mg/kg/day
- NEL (rat [12]; [19]): 10 mg/kg/day
- NOAEL (rat [12]; [19]): 10 mg/kg/day
- LEL (rat [12]; [37]): 10 mg/kg/day
- LOAEL (rat [12]; [37]): 10 mg/kg/day
- NEL (rat [12]; [38]): 3 mg/kg/day
- NOAEL (rat [12]; [38]): 3 mg/kg/day

SMILES: Cl.Cl.NCCNCCNCCN [Trientine hydrochloride]
- LOAEL (mouse [13]; [39]): > 1600 mg/kg/day
- NEL (mouse [13]; [39]): 400 mg/kg/day
- NOAEL (mouse [13]; [39]): ≥ 1600 mg/kg/day
- LEL (mouse [13]; group: developmental, developmental / developmental malformation / bone / delayed ossification + developmental / developmental malformation / bone / microcephaly…): 800 mg/kg/day
- LEL (mouse [13]; [40]): 1600 mg/kg/day
- LOAEL (mouse [13]; [40]): > 1600 mg/kg/day
- NEL (mouse [13]; [40]): 800 mg/kg/day
- NOAEL (mouse [13]; [40]): ≥ 1600 mg/kg/day

SMILES: CC(C)OC(=O)C(C)(C)Oc1ccc(C(=O)c2ccc(Cl)cc2)cc1 [Fenofibrate]
- LEL (mouse [14]; [41]): 11.7 mg/kg/day
- LOAEL (mouse [14]; [41]): > 586 mg/kg/day
- NEL (mouse [14]; [41]): < 11.7 mg/kg/day
- NOAEL (mouse [14]; [41]): ≥ 586 mg/kg/day
- LEL (mouse [14]; [42]): 586 mg/kg/day
- LOAEL (mouse [14]; [42]): > 586 mg/kg/day
- NEL (mouse [14]; [42]): 117 mg/kg/day
- NOAEL (mouse [14]; [42]): ≥ 586 mg/kg/day

SMILES: OCC(O)CO [Glycerol]
- LEL (rat [15]; [43]): 600 mg/kg/day
- LOAEL (rat [15]; [43]): > 600 mg/kg/day
- NEL (rat [15]; [43]): < 600 mg/kg/day
- NOAEL (rat [15]; [43]): ≥ 600 mg/kg/day
- LEL (rat [15]; [44]): 600 mg/kg/day
- LOAEL (rat [15]; [44]): > 600 mg/kg/day
- NEL (rat [15]; [44]): < 600 mg/kg/day
- NOAEL (rat [15]; [44]): ≥ 600 mg/kg/day
- LOAEL (rat [16]; [43]): > 1200 mg/kg/day
- NOAEL (rat [16]; [43]): ≥ 1200 mg/kg/day
- LEL (rat [16]; [45]): 300 mg/kg/day
- NEL (rat [16]; [45]): < 300 mg/kg/day
- LEL (rat [16]; [44]): 300 mg/kg/day
- LOAEL (rat [16]; [44]): > 1200 mg/kg/day
- NEL (rat [16]; [44]): < 300 mg/kg/day
- NOAEL (rat [16]; [44]): ≥ 1200 mg/kg/day
- LEL (rat [17]; [43]): 600 mg/kg/day
- LOAEL (rat [17]; [43]): > 1200 mg/kg/day
- NEL (rat [17]; [43]): < 600 mg/kg/day
- NOAEL (rat [17]; [43]): ≥ 1200 mg/kg/day
- LEL (rat [17]; [44]): 600 mg/kg/day
- LOAEL (rat [17]; [44]): > 1200 mg/kg/day
- NEL (rat [17]; [44]): < 600 mg/kg/day
- NOAEL (rat [17]; [44]): ≥ 1200 mg/kg/day
- LEL (rat [18]; [43]): 600 mg/kg/day
- LOAEL (rat [18]; [43]): > 600 mg/kg/day
- NEL (rat [18]; [43]): < 600 mg/kg/day
- NOAEL (rat [18]; [43]): ≥ 600 mg/kg/day
- LEL (rat [18]; [44]): 600 mg/kg/day
- LOAEL (rat [18]; [44]): > 600 mg/kg/day
- NEL (rat [18]; [44]): < 600 mg/kg/day
- NOAEL (rat [18]; [44]): ≥ 600 mg/kg/day

Source: EPA's ToxRefDB 2
